Data as given in patent US8871753B2, “Macrocyclic compounds and their use as kinase inhibitors” (Incyte Corporation, priority 2008, dated 2014).
Where a name gives a salt, the structure may show the parent alone. Read-outs that look alike come from different tables or passages of the source.

Key:
Assay type in all cases: biochemical
[1] = target: T1, human JAK1 (a.a. 837-1142) (Homo sapiens, UniProt P23458); experiment: In vitro JAK kinase assay (HTRF, phosphorylation of a biotinylated peptide), JAK1; conditions: read-out: JAK1 IC50
T1 construct: human JAK1 (a.a. 837-1142); His tag (N); made in house; host or cells: insect cells (baculovirus)
T1 sequence (P23458 849-1154): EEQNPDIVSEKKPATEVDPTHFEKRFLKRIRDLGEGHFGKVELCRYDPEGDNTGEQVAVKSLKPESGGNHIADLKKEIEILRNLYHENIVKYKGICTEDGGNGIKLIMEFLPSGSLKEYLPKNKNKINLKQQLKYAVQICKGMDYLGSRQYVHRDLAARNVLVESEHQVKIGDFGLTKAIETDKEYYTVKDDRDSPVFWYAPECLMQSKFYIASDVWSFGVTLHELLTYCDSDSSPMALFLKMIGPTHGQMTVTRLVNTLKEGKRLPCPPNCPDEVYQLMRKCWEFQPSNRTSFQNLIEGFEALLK
Outline: (§1)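 Phosphorylation of a biotinylated peptide by the JAK kinase domain, detected by HTRF with Eu-Py20 and SA-APC. ATP was 90 μM for JAK1, 30 μM for JAK2 and 3 μM for JAK3. Reactions ran 1 h at room temperature and were stopped with EDTA, followed by 40 min antibody binding.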

[2] = target: T2, human JAK2 (a.a. 828-1132) (Homo sapiens, UniProt O60674); experiment: In vitro JAK kinase assay (HTRF, phosphorylation of a biotinylated peptide), JAK2
T2 construct: JAK2 (a.a. 828-1132); His tag (N); made in house; host or cells: insect cells (baculovirus)
T2 sequence (O60674 828-1132): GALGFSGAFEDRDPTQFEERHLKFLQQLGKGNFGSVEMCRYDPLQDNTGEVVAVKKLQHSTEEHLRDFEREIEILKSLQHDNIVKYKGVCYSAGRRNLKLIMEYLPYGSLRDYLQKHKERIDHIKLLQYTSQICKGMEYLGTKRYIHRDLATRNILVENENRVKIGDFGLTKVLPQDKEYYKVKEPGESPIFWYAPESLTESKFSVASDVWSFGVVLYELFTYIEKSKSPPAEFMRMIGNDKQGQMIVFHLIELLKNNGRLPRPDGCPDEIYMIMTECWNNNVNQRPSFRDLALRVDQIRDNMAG
Outline: as §1

[3] = target: T3, human JAK3 (a.a. 781-1124) (Homo sapiens, UniProt P52333); experiment: In vitro JAK kinase assay (HTRF, phosphorylation of a biotinylated peptide), JAK3
T3 construct: JAK3 (a.a. 781-1124); His tag (N); made in house; host or cells: insect cells (baculovirus)
T3 sequence (P52333 781-1124): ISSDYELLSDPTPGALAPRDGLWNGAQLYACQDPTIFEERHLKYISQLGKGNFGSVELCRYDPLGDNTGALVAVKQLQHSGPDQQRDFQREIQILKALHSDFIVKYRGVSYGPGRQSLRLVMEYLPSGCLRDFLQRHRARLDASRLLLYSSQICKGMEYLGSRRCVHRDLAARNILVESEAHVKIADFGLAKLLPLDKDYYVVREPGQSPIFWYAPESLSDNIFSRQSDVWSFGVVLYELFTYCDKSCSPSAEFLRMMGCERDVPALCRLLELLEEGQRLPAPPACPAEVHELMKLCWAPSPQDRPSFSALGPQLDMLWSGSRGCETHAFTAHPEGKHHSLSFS
Outline: as §1

TYK2 = TYK2 (Homo sapiens, UniProt P29597); experiment: TYK2 kinase inhibition (Table A1)
TYK2, sequence (P29597 whole entry): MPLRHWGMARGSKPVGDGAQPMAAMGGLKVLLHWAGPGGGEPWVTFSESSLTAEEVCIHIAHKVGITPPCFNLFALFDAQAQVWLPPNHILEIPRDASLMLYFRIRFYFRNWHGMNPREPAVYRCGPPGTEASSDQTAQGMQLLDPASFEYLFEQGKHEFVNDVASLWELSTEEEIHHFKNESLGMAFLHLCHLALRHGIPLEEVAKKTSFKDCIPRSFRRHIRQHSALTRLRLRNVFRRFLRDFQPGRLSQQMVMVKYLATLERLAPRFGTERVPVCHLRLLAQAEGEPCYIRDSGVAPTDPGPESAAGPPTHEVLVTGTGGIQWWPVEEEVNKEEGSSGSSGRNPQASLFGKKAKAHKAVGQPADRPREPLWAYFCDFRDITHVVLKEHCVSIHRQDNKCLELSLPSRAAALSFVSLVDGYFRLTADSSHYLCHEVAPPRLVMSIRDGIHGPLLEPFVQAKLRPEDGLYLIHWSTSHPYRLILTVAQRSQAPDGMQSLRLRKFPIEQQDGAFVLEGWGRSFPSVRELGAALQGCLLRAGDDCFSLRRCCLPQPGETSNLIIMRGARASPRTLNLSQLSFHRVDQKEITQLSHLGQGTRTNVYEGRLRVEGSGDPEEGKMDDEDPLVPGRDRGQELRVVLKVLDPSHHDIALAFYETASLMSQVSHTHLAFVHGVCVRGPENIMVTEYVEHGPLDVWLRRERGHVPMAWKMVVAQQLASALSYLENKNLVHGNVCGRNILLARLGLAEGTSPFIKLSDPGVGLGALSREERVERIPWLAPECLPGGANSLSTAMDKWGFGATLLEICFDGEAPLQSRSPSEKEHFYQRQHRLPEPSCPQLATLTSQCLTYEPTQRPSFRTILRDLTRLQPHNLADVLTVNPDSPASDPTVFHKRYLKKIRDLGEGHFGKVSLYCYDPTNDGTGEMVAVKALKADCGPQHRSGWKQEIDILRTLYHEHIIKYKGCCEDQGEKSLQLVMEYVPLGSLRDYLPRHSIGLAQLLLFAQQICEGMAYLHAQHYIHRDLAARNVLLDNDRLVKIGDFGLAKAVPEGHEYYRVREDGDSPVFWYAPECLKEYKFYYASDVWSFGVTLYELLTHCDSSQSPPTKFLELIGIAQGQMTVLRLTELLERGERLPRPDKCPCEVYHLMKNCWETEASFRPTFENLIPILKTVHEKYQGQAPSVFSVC

Compound | IC50 ([1]; Table D1) [nM] | IC50 ([2]; Table D1) [nM] | IC50 ([3]; Table D1) [nM] | IC50 (TYK2; Table D1) [nM] | IC50 [1] [nM] | IC50 [2] [nM] | IC50 [3] [nM] | IC50 (TYK2) [nM]
O=C(Cc1c[nH]c2ccccc12)Nc1ccc2cc1CCc1cccc(c1)Nc1ncc(Cl)c(n1)N2 [Example C29, N-[6-Chloro-2,4,8,22-tetraazatetracyclo[14.3.1.1(3,7).1(9,13)]docosa-1(20),3(22),4,6,9(21),10,12,16,18-nonaen-12-yl]-2-(1H-indol-3-yl)acetamide bis(trifluoroacetate)] |  |  |  |  | 43 | 68 | 1030 | 227
Cc1cc(C(=O)N2CCN(C(=O)COc3ccc4cc3CCc3cncc(c3)Nc3ncc(Cl)c(n3)N4)CC2)n[nH]1 [Example D266, 6-Chloro-12-(2-{4-[(5-methyl-1H-pyrazol-3-yl)carbonyl]piperazin-1-yl}-2-oxoethoxy)-2,4,8,18,22-pentaazatetracyclo[14.3.1.1(3,7).1(9,13)]docosa-1(20),3(22),4,6,9(21),10,12,16,18-nonaene tris(trifluoroacetate)] | 31 | 21 | > 400 | > 400 |  |  |  | 
CC(=O)N1CCC(Nc2ccc3cc2CCc2cncc(c2)Nc2ncc(Cl)c(n2)N3)CC1 [Example D158, N-(1-Acetylpiperidin-4-yl)-6-chloro-2,4,8,18,22-pentaazatetracyclo[14.3.1.1(3,7).1(9,13)]docosa-1(20),3(22),4,6,9(21),10,12,16,18-nonaen-12-amine tris(trifluoroacetate)] | 150 | > 400 | > 400 | > 400 |  |  |  | 
COc1cccnc1N1CCN(C(=O)COc2ccc3cc2CCc2cncc(c2)Nc2ncc(Cl)c(n2)N3)CC1 [Example D249, 6-Chloro-12-{2-[4-(3-methoxypyridin-2-yl)piperazin-1-yl]-2-oxoethoxy}-2,4,8,18,22-pentaazatetracyclo[14.3.1.1(3,7).1(9,13)]docosa-1(20),3(22),4,6,9(21),10,12,16,18-nonaene tris(trifluoroacetate)] | 71 | > 400 | > 400 | > 400 |  |  |  | 
COC(=O)c1ccc2cc1CCc1cncc(c1)Nc1ncc(Cl)c(n1)N2 [Example C28, Methyl 6-chloro-2,4,8,18,22-pentaazatetracyclo[14.3.1.1(3,7).1(9,13)]docosa-1(20),3(22),4,6,9(21),10,12,16,18-nonaene-12-carboxylate] |  |  |  |  | 120 | 100 | > 200 | > 200
O=C(COc1ccc2cc1CCc1cncc(c1)Nc1ncc(Cl)c(n1)N2)N1CCN(c2ccccc2)CC1 [Example D234, 6-Chloro-12-[2-oxo-2-(4-phenylpiperazin-1-yl)ethoxy]-2,4,8,18,22-pentaazatetracyclo[14.3.1.1(3,7).1(9,13)]docosa-1(20),3(22),4,6,9(21),10,12,16,18-nonaene tris(trifluoroacetate)] | 41 | 160 | > 400 | > 400 |  |  |  | 
COC(=O)N1CCN(C(=O)COc2ccc3cc2CCc2cncc(c2)Nc2ncc(Cl)c(n2)N3)CC1 [Example D261, Methyl 4-({[6-chloro-2,4,8,18,22-pentaazatetracyclo[14.3.1.1(3,7).1(9,13)]docosa-1(20),3(22),4,6,9(21),10,12,16,18-nonaen-12-yl]oxy}acetyl)piperazine-1-carboxylate bis(trifluoroacetate)] | 31 | 106 | > 400 | > 400 |  |  |  | 
C[N+]1(C)CCN(c2ccc3cc2CCc2cccc(c2)Nc2ncc(Cl)c(n2)N3)CC1 [Example D86, 4-[6-Chloro-2,4,8,22-tetraazatetracyclo[14.3.1.1(3,7).1(9,13)]docosa-1(20),3(22),4,6,9(21),10,12,16,18-nonaen-12-yl]-1,1-dimethylpiperazin-1-ium bis(trifluoroacetate)] | 295 | 87 | 169 | 268 |  |  |  | 
O=C(Cn1c(=O)oc2c3cc(cc21)Nc1nc(ncc1Cl)Nc1cccc(c1)CC3)Nc1ccccc1 [Example D185, 2-[4-Chloro-19-oxo-18-oxa-2,6,8,20,25-pentaazapentacyclo[14.6.1.1(3,7).1(9,13).0(17,21)]pentacosa-1(23),3(25),4,6,9(24),10,12,16,21-nonaen-20-yl]-N-phenylacetamide trifluoroacetate] | 108 | 49 | 196 | 742 |  |  |  | 

The remaining lines, values ahead:

IC50 ([1]; Table D1) [nM] | IC50 ([2]; Table D1) [nM] | IC50 ([3]; Table D1) [nM] | IC50 (TYK2; Table D1) [nM] | IC50 [1] [nM] | IC50 [2] [nM] | IC50 [3] [nM] | IC50 (TYK2) [nM] | Compound
18 | 17 | > 400 | > 400 |  |  |  |  | Cc1cc(C(=O)N2CCN(C(=O)COc3ccc4cc3CCc3cncc(c3)Nc3ncc(Cl)c(n3)N4)CC2)no1 [Example D251, 6-Chloro-12-(2-{4-[(5-methylisoxazol-3-yl)carbonyl]piperazin-1-yl}-2-oxoethoxy)-2,4,8,18,22-pentaazatetracyclo[14.3.1.1(3,7).1(9,13)]docosa-1(20),3(22),4,6,9(21),10,12,16,18-nonaene bis(trifluoroacetate)]
14 | 58 | > 400 | > 400 |  |  |  |  | O=C(Nc1ccsc1)N1CCC(CCOc2ccc3cc2CCc2cncc(c2)Nc2ncc(Cl)c(n2)N3)CC1 [Example D166, 4-(2-{[6-Chloro-2,4,8,18,22-pentaazatetracyclo[14.3.1.1(3,7).1(9,13)]docosa-1(20),3(22),4,6,9(21),10,12,16,18-nonaen-12-yl]oxy}ethyl)-N-3-thienylpiperidine-1-carboxamide bis(trifluoroacetate)]
13 | 44 | > 400 | 276 |  |  |  |  | O=C(OCc1ccccc1)N1CCC(CCNc2ccc3cc2CCc2cncc(c2)Nc2ncc(Cl)c(n2)N3)CC1 [Example D215, Benzyl 4-(2-{[6-chloro-2,4,8,18,22-pentaazatetracyclo[14.3.1.1(3,7).1(9,13)]docosa-1(20),3(22),4,6,9(21),10,12,16,18-nonaen-12-yl]amino}ethyl)piperidine-1-carboxylate]
30 | 226 | > 400 | > 400 |  |  |  |  | Cc1ccc(N2CCN(C(=O)COc3ccc4cc3CCc3cncc(c3)Nc3ncc(Cl)c(n3)N4)CC2)nc1 [Example D246, 6-Chloro-12-{2-[4-(5-methylpyridin-2-yl)piperazin-1-yl]-2-oxoethoxy}-2,4,8,18,22-pentaazatetracyclo[14.3.1.1(3,7).1(9,13)]docosa-1(20),3(22),4,6,9(21),10,12,16,18-nonaene tris(trifluoroacetate)]
7.8 | 59 | > 400 | 226 |  |  |  |  | O=C(CC1CCN(c2nccs2)C1)Nc1ccc2cc1CCc1cncc(c1)Nc1ncc(Cl)c(n1)N2 (stereo not drawn) [Example D154, N-[6-Chloro-2,4,8,18,22-pentaazatetracyclo[14.3.1.1(3,7).1(9,13)]docosa-1(20),3(22),4,6,9(21),10,12,16,18-nonaen-12-yl]-2-[1-(1,3-thiazol-2-yl)pyrrolidin-3-yl]acetamide tris(trifluoroacetate)]
12 | 22 | 64 | 166 |  |  |  |  | COC(=O)Cn1c(=O)oc2c3cc(cc21)Nc1nc(ncc1Cl)Nc1cccc(c1)CC3 [Example D183, Methyl [4-chloro-19-oxo-18-oxa-2,6,8,20,25-pentaazapentacyclo[14.6.1.1(3,7).1(9,13).0(17,21)]pentacosa-1(23),3(25),4,6,9(24),10,12,16,21-nonaen-20-yl]acetate trifluoroacetate]
